Activity calls are given as the source filed them. The rule behind the calls is not given here.
Experiments:
[1] = target: T1, Casein kinase II subunit alpha (Homo sapiens, UniProt P68400); assay: Displacement of ARC-1504/ARC-1513-5O from CK2alpha (unknown origin) (1 to 335 residues) after 15 to 60 mins by luminescence assay
[2] = target: T1, Casein kinase II subunit alpha; assay: Displacement of ARC-1504/ARC-1513-5O from CK2alpha (unknown origin) (1 to 335 residues) assessed as photoluminescence lifetime using non-deoxygenated solution after 15 to 60 mins by luminescence assay
[3] = target: T1, Casein kinase II subunit alpha; assay: Displacement of ARC-1504/ARC-1513-5O from CK2alpha (unknown origin) (1 to 335 residues) assessed as maximal luminescence intensity of the complex after 15 to 60 mins by luminescence assay relative to ARC-1527
[4] = target: T1, Casein kinase II subunit alpha; assay: Displacement of 5-TAMRA-labeled ARC-1530 from CK2alpha (unknown origin) (1 to 335 residues) after 15 to 60 mins by luminescence assay
[5] = target: Casein kinase II subunit alpha' (Homo sapiens) (UniProt P19784); assay: Displacement of ARC-1504/ARC-1513-5O from CK2alpha' (unknown origin) (1 to 335 residues) assessed as photoluminescence lifetime using non-deoxygenated solution after 15 to 60 mins by luminescence assay
[6] = target: T1, Casein kinase II subunit alpha; assay: Displacement of ARC-1504/ARC-1513-5O from CK2alpha (unknown origin) (1 to 335 residues) assessed as photoluminescence lifetime using deoxygenated solution after 15 to 60 mins by luminescence assay
[7] = target: T2, Casein kinase II subunit alpha (Mus musculus) (UniProt Q60737); assay: Binding affinity to RFP-tagged CK2alpha in mouse NIH/3T3 cell lysate at 10 nM by luminescence assay relative to native CK2
T2 sequence (whole entry): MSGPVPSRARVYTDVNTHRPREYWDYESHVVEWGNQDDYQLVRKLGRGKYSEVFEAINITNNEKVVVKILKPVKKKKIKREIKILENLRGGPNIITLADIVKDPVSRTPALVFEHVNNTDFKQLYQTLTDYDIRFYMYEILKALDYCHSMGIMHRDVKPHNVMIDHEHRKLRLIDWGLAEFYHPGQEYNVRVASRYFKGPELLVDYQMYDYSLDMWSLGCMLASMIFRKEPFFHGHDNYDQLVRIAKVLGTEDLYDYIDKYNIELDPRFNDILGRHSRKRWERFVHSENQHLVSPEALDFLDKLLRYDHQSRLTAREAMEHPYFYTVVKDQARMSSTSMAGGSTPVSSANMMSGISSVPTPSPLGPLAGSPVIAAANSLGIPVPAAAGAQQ

Mus musculus [8] = organism: Mus musculus; assay: Binding affinity to CK2 in mouse NIH3T3 cell lysate at 10 nM by luminescence assay
[9] = target: T2, Casein kinase II subunit alpha (Mus musculus); assay: Binding affinity to RFP-tagged CK2alpha in mouse NIH/3T3 cell lysate at 10 nM by luminescence assay
[10] = target: T2, Casein kinase II subunit alpha (Mus musculus); assay: Binding affinity to RFP-tagged CK2alpha in mouse NIH/3T3 cell lysate at 10 nM in presence of CK2 inhibitor CX-4945 by luminescence assay
Mus musculus [11] = organism: Mus musculus; assay: Binding affinity to CK2 in mouse NIH3T3 cell lysate at 10 nM in presence of CK2 inhibitor CX-4945 by luminescence assay

Row | SMILES | Kd [1] [nM] | Time [2] [microsec] | fold change (FC) [3] | Activity [4] | Time [5] [microsec] | Time [6] [microsec] | fold change (FC) [7] | Activity (Mus musculus [8]) | Activity [9] | Activity [10] | Activity (Mus musculus [11])
1 | Nc1ncc(-c2ccc(C(=O)O)cc2)s1 | 48 |  |  |  |  |  |  |  |  |  | 
2 | NCCCC[C@@H](NC(=O)[C@@H](CC(=O)O)NC(=O)[C@@H](CC(=O)O)NC(=O)[C@@H](CC(=O)O)NC(=O)[C@@H](CC(=O)O)NC(=O)[C@@H](CC(=O)O)NC(=O)[C@@H](CC(=O)O)NC(=O)CCCCCNC(=O)CCC(=O)Nc1ncc(-c2ccc(C(=O)O)cc2)[se]1)C(=O)O | 0.34 | 55 | 46 | Active |  |  |  |  |  |  | 
3 | CN(C)c1ccc2c(-c3ccc(C(=O)NCCCC[C@@H](NC(=O)[C@@H](CC(=O)O)NC(=O)[C@@H](CC(=O)O)NC(=O)[C@@H](CC(=O)O)NC(=O)[C@@H](CC(=O)O)NC(=O)[C@@H](CC(=O)O)NC(=O)[C@@H](CC(=O)O)NC(=O)CCCCCNC(=O)CCC(=O)Nc4ncc(-c5ccc(C(=O)O)cc5)s4)C(=O)O)cc3C(=O)[O-])c3ccc(=[N+](C)C)cc-3oc2c1 | 0.4 | 62 | 76 |  | 62 | 165 |  |  |  |  | 
4 | CN(C)c1ccc2c(-c3ccc(C(=O)NCCCC[C@@H](NC(=O)[C@@H](CC(=O)O)NC(=O)[C@@H](CC(=O)O)NC(=O)[C@@H](CC(=O)O)NC(=O)[C@@H](CC(=O)O)NC(=O)[C@@H](CC(=O)O)NC(=O)[C@@H](CC(=O)O)NC(=O)CCCCCNC(=O)CCC(=O)Nc4ncc(-c5ccc(C(=O)O)cc5)[se]4)C(=O)O)cc3C(=O)[O-])c3ccc(=[N+](C)C)cc-3oc2c1 | 0.85 | 39 | 5300 |  | 39 | 58 | 10 | Active | Active | inactive | inactive

Reference: ChEMBL document CHEMBL4152360 (Bioorg Med Chem, 2018)
